“Also recorded” adds a separate entry of the source. Read-outs that look alike come from different tables or passages of the source.
B1: TGFβ2: transforming growth factor beta 2, used to induce a glaucoma-like cell phenotype (protein, UniProt P61812 303-414, looked up)
Transforming growth factor …: ALDAAYCFRNVQDNCCLRPLYIDFKRDLGWKWIHEPKGYNANFCAGACPYLWSSDTQHSRVLSLYNTINPEASASPCCVSQDLEPLTILYYIGKTPKIEQLSNMIVKSCKCS

Experiments:
ROCK1/2 [1] = test: ROCK1/2 kinase assays, average of both isoforms; type: biochemical, human; settings: average of ROCK1 and ROCK2 Ki
Protocol: (§1) Dose response analyses were conducted to establish IC50 values, which were converted to Ki values using the Cheng-Prusoff Equation Ki = IC50/(1 + ([ATP]/Km ATP).

ROCK1 = target: T1, ROCK1 (Homo sapiens, UniProt Q13464); test: ROCK1 protein kinase assay (Kinase-Glo Luminescent Kinase Assay); type: biochemical
T1 construct: purchased Invitrogen; Thermo Fisher Scientific
Protocol: as §1

cellular esterases = settings: stated in discussion, no reference given; cited from earlier work
[2] = system: F-actin stress fibers in hydrogel-encapsulated HTM cells; test: HTM hydrogel immunocytochemistry, F-actin stress fibers; type: cell-based, human; settings: for Effect on TGFβ2-induced F-actin stress fibers vs. TGFβ2 group: HTM05, HTM07, HTM36
Protocol: (§2) Alternatively, 30 µl droplets of the HTM cell-laden hydrogel precursor solution were pipetted onto Surfasil-coated (Fisher Scientific) 18 × 18-mm square glass coverslips followed by placing a regular 12-mm round glass coverslip onto the hydrogels to facilitate even spreading of the polymer solution. HTM hydrogels were crosslinked by exposure to UV light (OmniCure S1500 UV Spot Curing System; Excelitas Technologies, Mississauga, Ontario, Canada) at 320-500 nm, 2.2 W/cm^2 for 5 s. The HTM hydrogel-adhered coverslips were removed with fine-tipped tweezers and placed hydrogel-side facing up in PDMS-coated 24-well culture plates ( Supplementary Figure 2C ).
Nuclei were counterstained with 4′,6′-diamidino-2-phenylindole (DAPI; Abcam). Coverslips were mounted with ProLong™ Gold Antifade (Invitrogen) on Superfrost™ microscope slides (Fisher Scientific), and fluorescent images were acquired with a Zeiss LSM 780 confocal microscope (Zeiss, Germany). […] Individual z-stacks consisted of 7 slices with the z-step interval set to […]. Fluorescence signal intensity of F-actin and αSMA were determined using Z-project maximum intensity projections in Fiji (NIH) with image background subtraction.

[3] = system: normotensive Dutch Belted rabbits; set-up: method as in unpublished data; settings: ref unpublished data; cited from earlier work
[4] = system: HTM cell-encapsulated ECM hydrogels; test: HTM hydrogel contraction analysis after TGFβ2 induction and ROCKi rescue; type: cell-based, human; settings: for HTM hydrogel contraction reversal compared with 10 µM Y27632 / Concentrations giving significantly decreased HTM hydrogel contraction compared to the TGFβ2 group / EC50: HTM07; for Concentrations giving significantly decreased HTM hydrogel contraction compared to the TGFβ2 group: dose range 0.0001-1.0 µM, 5-10 d; for EC50 / Increase of HTM hydrogel contraction over controls: TGFβ2 2.5 ng/ml 0-5 d; for EC50: then ROCKi 0.0001-1.0 µM 5-10 d, read-out: EC50, reduction of TGFβ2-induced HTM hydrogel contraction
Protocol: as §2, with “HTM cells (1.0 × 10^6 cells/ml) were thoroughly mixed with MA-COL (3.6 mg/ml), SH-HA (0.5 mg/ml, 0.025% (w/v) photoinitiator) and SH-ELP (2.5 mg/ml) on ice ( Supplementary Figure 2A ), followed by pipetting 10 μl droplets of the HTM cell-laden hydrogel precursor solution onto polydimethylsiloxane-coated (PDMS; Sylgard 184; Dow Corning) 24-well culture plates ( Supplementary Figure 2B ), according to our established protocols ([32]–[34]). Alternatively,” for “Alternatively,”
Longitudinal brightfield images of HTM hydrogels subjected to the different treatments were acquired at 0 d and 10 d with an Eclipse Ti microscope (Nikon Instruments, Melville, NY, USA). Construct area was measured using Fiji software (National Institutes of Health (NIH), Bethesda, MD, USA) and normalized to 0 d followed by normalization to controls.

[5] = system: transformed HTM cells (TM-1); test: Cell-based assay measuring disruption of focal adhesions (paxillin staining); set-up: species or system human; settings: 6 h, TM-1 cells on fibronectin-coated glass, Mean ± SEM, N ≥ 3
Protocol: Cell-based assays measuring disruption of focal adhesions were conducted using transformed HTM cells (TM-1; kind gift from Donna Peters; Department of Ophthalmology and Visual Sciences, University of Wisconsin), as previously described ([39]). […] TM-1 cells were stained with an anti-paxillin primary antibody followed by incubation with an Alexa Fluor-488 fluorescent secondary antibody and Hoechst 33342 counterstain (all from Invitrogen) to reveal focal adhesions and nuclei, respectively. Images were collected on an INCell 1000 imager (GE Healthcare, Marlborough, MA, USA), and total area of focal adhesions was measured using a custom algorithm developed using the INCell Developer Toolbox, v1.6. Dose response analyses were conducted to establish IC50 values.

ROCK2 = target: T2, ROCK2 (Homo sapiens, UniProt O75116); test: ROCK2 protein kinase assay (Kinase-Glo Luminescent Kinase Assay); type: biochemical
T2 construct: purchased Invitrogen; Thermo Fisher Scientific
Protocol: as §1

[6] = stated in discussion, no reference given; cited from earlier work
ROCK1/2 [7] = settings: same biochemical assay; ref [13]; read-out: Ki of Y27632; cited from earlier work
[8] = system: transformed HTM cells (TM-1); settings: same cell-based assay; ref [13]; read-out: IC50 of Y27632, HTM cell focal adhesion disruption; cited from earlier work
[9] = each compound at its respective EC50
[10] = each compound at its respective EC50, HTM05, HTM07, HTM36
[11] = each compound at its respective EC50, pooled HTM05, HTM07, HTM36, 10 d
[12] = each compound at its respective EC50, across HTM05, HTM07, HTM36, 10 d
[13] = TGFβ2 induction group, across three cell strains

T1 sequence (Q13464 whole entry): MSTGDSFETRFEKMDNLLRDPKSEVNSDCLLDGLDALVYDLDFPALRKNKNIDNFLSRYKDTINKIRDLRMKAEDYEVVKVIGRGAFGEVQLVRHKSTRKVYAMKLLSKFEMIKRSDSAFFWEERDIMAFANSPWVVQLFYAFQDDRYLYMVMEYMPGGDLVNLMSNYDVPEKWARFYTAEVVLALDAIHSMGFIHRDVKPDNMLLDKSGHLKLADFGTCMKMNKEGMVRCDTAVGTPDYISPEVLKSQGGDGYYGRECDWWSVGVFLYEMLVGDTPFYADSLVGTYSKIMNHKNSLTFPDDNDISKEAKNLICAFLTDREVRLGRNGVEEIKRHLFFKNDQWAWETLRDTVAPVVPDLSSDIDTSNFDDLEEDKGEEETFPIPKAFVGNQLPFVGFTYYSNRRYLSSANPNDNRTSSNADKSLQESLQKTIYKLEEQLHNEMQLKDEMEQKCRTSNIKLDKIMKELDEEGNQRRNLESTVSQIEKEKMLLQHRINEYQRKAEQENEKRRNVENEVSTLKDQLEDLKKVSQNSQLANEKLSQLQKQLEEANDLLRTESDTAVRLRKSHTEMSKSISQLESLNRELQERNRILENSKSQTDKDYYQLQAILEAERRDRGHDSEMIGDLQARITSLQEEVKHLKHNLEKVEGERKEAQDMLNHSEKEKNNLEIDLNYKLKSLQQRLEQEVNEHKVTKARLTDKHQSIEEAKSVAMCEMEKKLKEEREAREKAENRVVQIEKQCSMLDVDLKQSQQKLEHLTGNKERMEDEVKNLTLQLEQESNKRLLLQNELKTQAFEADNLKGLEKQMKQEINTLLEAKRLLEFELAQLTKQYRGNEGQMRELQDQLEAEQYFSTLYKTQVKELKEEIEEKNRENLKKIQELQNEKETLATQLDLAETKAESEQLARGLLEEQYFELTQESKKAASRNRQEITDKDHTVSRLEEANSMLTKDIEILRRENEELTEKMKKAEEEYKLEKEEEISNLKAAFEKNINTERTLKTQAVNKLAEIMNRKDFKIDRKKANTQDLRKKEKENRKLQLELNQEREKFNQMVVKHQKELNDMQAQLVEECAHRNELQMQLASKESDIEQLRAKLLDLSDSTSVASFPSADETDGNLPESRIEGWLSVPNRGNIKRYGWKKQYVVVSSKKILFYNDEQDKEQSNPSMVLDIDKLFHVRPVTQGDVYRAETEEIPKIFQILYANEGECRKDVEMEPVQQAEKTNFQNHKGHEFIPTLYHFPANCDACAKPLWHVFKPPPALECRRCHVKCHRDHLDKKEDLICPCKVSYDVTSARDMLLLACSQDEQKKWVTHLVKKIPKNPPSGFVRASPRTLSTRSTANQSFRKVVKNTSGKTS
T2 sequence (O75116 whole entry): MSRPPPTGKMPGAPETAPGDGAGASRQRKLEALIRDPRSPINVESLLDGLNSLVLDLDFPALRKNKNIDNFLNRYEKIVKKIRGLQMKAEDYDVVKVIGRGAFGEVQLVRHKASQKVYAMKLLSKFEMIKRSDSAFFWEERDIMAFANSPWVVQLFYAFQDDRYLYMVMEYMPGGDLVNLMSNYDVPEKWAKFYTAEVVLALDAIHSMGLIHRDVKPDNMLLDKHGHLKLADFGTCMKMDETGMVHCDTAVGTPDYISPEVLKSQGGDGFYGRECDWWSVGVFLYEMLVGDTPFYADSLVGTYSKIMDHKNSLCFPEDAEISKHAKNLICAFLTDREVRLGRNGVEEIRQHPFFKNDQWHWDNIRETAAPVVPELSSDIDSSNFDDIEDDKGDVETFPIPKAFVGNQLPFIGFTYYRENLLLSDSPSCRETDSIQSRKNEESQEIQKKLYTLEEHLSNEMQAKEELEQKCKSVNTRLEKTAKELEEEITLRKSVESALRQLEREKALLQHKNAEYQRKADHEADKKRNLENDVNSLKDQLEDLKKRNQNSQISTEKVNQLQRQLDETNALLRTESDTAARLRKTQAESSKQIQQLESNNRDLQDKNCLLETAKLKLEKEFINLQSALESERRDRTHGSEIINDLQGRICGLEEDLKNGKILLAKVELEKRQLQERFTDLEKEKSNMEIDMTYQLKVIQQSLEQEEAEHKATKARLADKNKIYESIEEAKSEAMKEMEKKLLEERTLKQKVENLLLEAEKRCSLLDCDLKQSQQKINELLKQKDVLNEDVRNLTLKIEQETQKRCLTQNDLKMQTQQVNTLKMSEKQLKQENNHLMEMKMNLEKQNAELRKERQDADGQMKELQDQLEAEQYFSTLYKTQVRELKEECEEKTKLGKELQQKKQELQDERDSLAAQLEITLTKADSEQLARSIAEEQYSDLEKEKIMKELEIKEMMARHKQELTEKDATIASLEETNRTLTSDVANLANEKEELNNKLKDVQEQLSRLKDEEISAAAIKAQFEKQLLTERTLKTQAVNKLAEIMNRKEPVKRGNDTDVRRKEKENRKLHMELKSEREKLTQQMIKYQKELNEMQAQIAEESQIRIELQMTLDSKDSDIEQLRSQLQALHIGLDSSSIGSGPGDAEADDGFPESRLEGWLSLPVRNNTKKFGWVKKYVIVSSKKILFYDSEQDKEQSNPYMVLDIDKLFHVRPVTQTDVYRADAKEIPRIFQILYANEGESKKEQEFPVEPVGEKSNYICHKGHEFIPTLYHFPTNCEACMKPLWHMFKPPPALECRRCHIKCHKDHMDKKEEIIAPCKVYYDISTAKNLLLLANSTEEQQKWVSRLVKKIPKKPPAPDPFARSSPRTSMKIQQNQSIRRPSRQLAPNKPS

Row | Molecule | Ki (ROCK1/2 [1]) [nM] | Ki (ROCK1) [nM] | Metabolism by cellular esterases (ester hydrolysis) (cellular esterases) | Effect on TGFβ2-induced F-actin stress fibers vs. TGFβ2 group [2, 9] | Intraocular pressure lowering [3] | HTM hydrogel contraction reversal compared with 10 µM Y27632 ([4]; compound at 1.0 µM) | Concentrations giving significantly decreased HTM hydrogel contraction compared to the TGFβ2 group [4] [µM] | EC50 ([4]; Homo sapiens, HTM) [nM] | Effect on TGFβ2-induced HTM hydrogel contraction vs. TGFβ2 group [4, 10] | IC50 ([5]; Homo sapiens) [nM] | Ki (ROCK2) [nM] | Relative F-actin signal fold-change vs. controls [2, 11] | Relative hydrogel size vs. controls [4, 12] | further results
1 | NC[C@@H](C(=O)Nc1ccc2cnccc2c1)c1ccc(COC(=O)c2ccccc2)cc1 [Compound A] | ~1.4 | 1.5 ± 0.7 | more quickly metabolized than netarsudil | not different from TGFβ2 | did not perform as well; also recorded: unable to significantly lower intraocular pressure | not different | ≥ 0.01 | 3.7 | failed to reverse | ~15 | – | – | – | Effect on TGFβ2-induced HTM hydrogel contraction, HTM36 ([4]; uniform ROCKi concentration of 35.9 nM, HTM36): significantly decreased
2 | NC[C@@H](C(=O)Nc1ccc2cnccc2c1Cl)c1ccccc1 [Compound B] | ~1.9 | 1.7 | cannot be metabolized by cellular esterases at all | significantly decreased | did not perform as well as netarsudil | – | ≥ 0.1 | 22.2 | significantly decreased TGFβ2-induced HTM hydrogel contraction using HTM05 and HTM36 cells | – | 2 | ~ 1.1 fold-change | ~ 105% | –
3 | NC[C@@H](C(=O)Nc1ccc2cnccc2c1)c1ccc(Cl)cc1 [Compound C] | ~1.5 | 1.8 ± 0.3 | cannot be metabolized by cellular esterases at all | significantly different from TGFβ2 | did not perform as well; also recorded: unable to significantly lower intraocular pressure | comparable | ≥ 0.01 | 6.7 | failed to rescue | ~5.6 | 1.2 ± 0.4 | ~ 1.3 fold-change | ~ 87% | –
4 | NC[C@@H](C(=O)Nc1ccc2cnccc2c1)c1ccc(O)cc1 [Compound D] | ~3.1 | 4.5 ± 2 | – | significantly decreased TGFβ2-induced F-actin stress fibers across all three HTM cell strains | did not perform as well as netarsudil | – | ≥ 0.1 | 123 | significantly decreased | ~193 | 1.7 ± 0.7 | ~ 0.8 fold-change | ~ 96% | Ionization at physiological pH [6]: partially ionized at physiological pH
5 | C[C@@H](N)[C@H]1CC[C@H](C(=O)Nc2ccncc2)CC1 [Compound Y27632, Y27632] | – | – | – | – | – | – | – | – | – | – | – | – | – | Ki (ROCK1/2 [7]): ~31.5 nM; IC50 [8]: ~1740 nM
6 | Cc1ccc(C(=O)OCc2ccc([C@@H](CN)C(=O)Nc3ccc4cnccc4c3)cc2)c(C)c1 [Netarsudil] | ~2.7 | – | – | significantly decreased | – | significantly more potent | ≥ 0.01 | – | significantly decreased | – | – | – | – | Effect on F-actin signal ([2]; max level netarsudil, 1.0 µM): nearly abolishing the F-actin signal; Effect on TGFβ2-induced HTM hydrogel contraction, overall across HTM07 and HTM36 [4]: significantly decreased; EC50 [4]: 35.9 nM; HTM hydrogel contraction reversal compared with 10 µM Y27632 ([4]; compound at 0.1 µM): equivalent; Difference in efficacy, netarsudil 1.0 µM vs. 35.9 nM ([4]; HTM hydrogel contraction, across three cell strains): ~ 1.2 fold; IC50 [5]: 17 ± 2 nM; IC50 ([5]; listed as netarsudil): ~17 nM
7 | B1 | – | – | – | – | – | – | – | – | – | – | – | – | – | Relative F-actin signal fold-change vs. controls [2, 13]: ~ 1.9 fold-change; Increase of HTM hydrogel contraction over controls ([4]; HTM05, HTM07, HTM36): ~ 25%; Increase of HTM hydrogel contraction over controls ([4]; HTM07 and HTM36, higher passage cells): ~ 15%; Relative hydrogel size vs. controls [4, 13]: ~ 75%

Reference: PMC11182288, “Effects of Netarsudil-Family Rho Kinase Inhibitors on Human Trabecular Meshwork Cell Contractility and Actin Remodeling Using a Bioengineered ECM Hydrogel” (Frontiers in Ophthalmology, 2022)
